Experimental findings from PubChem BioAssay (NCI) are described below.

Some test systems named below: ACHN renal; EKVX NSCLC; NCI/ADR-RES ovarian; SF-295 CNS; NCI-H226 lung; HCC-2998 colon; SNB-75 CNS; UO-31 renal.
Common to all, as to experiment: DTP human tumour cell line panel, 48 h

Each structure is given as a SMILES string.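 Where inhibition never reached the appropriate level, the endpoint shown equals the highest concentration tested. Otherwise, values were interpolated linearly from a five-concentration, 48-hour dose response in 96-well plates. GI50 = concentration required for 50% inhibition of growth. Definition used: TGI = concentration required for complete inhibition of growth.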

Take `CCOc1cc2c(NCCCN(CCO)CCO)ncnc2c(OCC)c1OCC`: the TGI in the assay on ACHN renal, in the assay with EKVX NSCLC, with NCI/ADR-RES ovarian, in the assay with SF-295 CNS, in the assay with NCI-H226 lung and in the assay with HCC-2998 colon was > 100 µM each time. Also, the TGI in the assay with SNB-75 CNS and in the assay on UO-31 renal was > 100 µM each time.
Consider `COc1ccccc1NC(=O)n1nc(N)c2ccccc21`, for which the GI50 with ACHN renal is > 81.7 µM; in the assay with EKVX NSCLC, 55.9 µM; in the assay with NCI/ADR-RES ovarian, 87.4 µM; with SF-295 CNS, 52.1 µM; in the assay with NCI-H226 lung, > 74.7 µM; with HCC-2998 colon, > 81.4 µM. Besides, the results for the GI50 in the assay with SNB-75 CNS and with UO-31 renal were 37 µM and > 63.3 µM, respectively. Moreover, the TGI in the assay with ACHN renal, in the assay on EKVX NSCLC, in the assay with NCI/ADR-RES ovarian, in the assay on SF-295 CNS, with NCI-H226 lung and in the assay on HCC-2998 colon was > 100 µM in each case. Also, the TGI in the assay with SNB-75 CNS and in the assay on UO-31 renal was > 100 µM in each case.
In the case of `C=C1C(=O)O[C@H]2[C@H]1CC/C(COC(=O)NCc1ccc(Cn3c(=O)sn(CCCCl)c3=O)cc1)=C\CC[C@@]1(C)O[C@@H]21`, the GI50 was 1.66 µM in the assay with ACHN renal; 2.82 µM with EKVX NSCLC; 26.9 µM in the assay on NCI/ADR-RES ovarian; 17.7 µM in the assay on SF-295 CNS; 16.6 µM with NCI-H226 lung; 7.83 µM in the assay with HCC-2998 colon. For the same compound, the GI50 in the assay with SNB-75 CNS was 2.03 µM; with UO-31 renal, 1.4 µM. Also, the TGI is 3.05 µM in the assay on ACHN renal; 12.2 µM in the assay on EKVX NSCLC; > 100 µM in the assay with NCI/ADR-RES ovarian; 31.7 µM in the assay with SF-295 CNS; 42.6 µM in the assay with NCI-H226 lung; 21.4 µM in the assay with HCC-2998 colon. Moreover, the TGI with SNB-75 CNS came out at 11.4 µM; in the assay with UO-31 renal it was 2.75 µM.
Consider `Cc1cc(C)c(C[N+](C)(C)C)c(C)c1C`, for which the GI50 was 0.173 µM with ACHN renal; 0.475 µM in the assay with NCI/ADR-RES ovarian; 0.255 µM in the assay with SF-295 CNS; 0.565 µM with NCI-H226 lung; 0.521 µM with HCC-2998 colon; 0.402 µM in the assay on SNB-75 CNS. For the same compound, the GI50 in the assay with UO-31 renal was 0.333 µM. Further, the TGI with ACHN renal was > 100 µM; in the assay on NCI/ADR-RES ovarian, 16.3 µM; in the assay on SF-295 CNS, 7.25 µM; with NCI-H226 lung, 11.9 µM; with HCC-2998 colon it was 12.4 µM; in the assay with SNB-75 CNS it was 11.5 µM. Moreover, the TGI in the assay on UO-31 renal came out at 42.8 µM.
With `C[C@]1(CO)[C@H]2CC[C@@]34C=C[C@@](CO)(CC[C@H]3[C@]2(C)CC[C@H]1O)C4`, the TGI in the assay on ACHN renal, in the assay on EKVX NSCLC, in the assay with NCI/ADR-RES ovarian, in the assay with SF-295 CNS, in the assay on NCI-H226 lung and in the assay with HCC-2998 colon was > 100 µM throughout. Also, the TGI in the assay with SNB-75 CNS and in the assay with UO-31 renal was > 100 µM in each case.
Regarding `Cc1nc2sc(C(=O)Nc3cccc4ccccc34)c(N)c2cc1C(=O)c1ccccc1`, the GI50 was 2.73 µM in the assay with ACHN renal; 2.95 µM with EKVX NSCLC; 1.43 µM in the assay on NCI/ADR-RES ovarian; 7.71 µM in the assay on NCI-H226 lung; 1.52 µM in the assay on HCC-2998 colon; 1.04 µM in the assay on SNB-75 CNS. Besides, in the assay with UO-31 renal, the GI50 is 2.11 µM. Also, the TGI in the assay on ACHN renal, in the assay on EKVX NSCLC, in the assay with NCI/ADR-RES ovarian, in the assay on NCI-H226 lung, in the assay with HCC-2998 colon and with SNB-75 CNS was > 50 µM throughout. In addition, in the assay on UO-31 renal, the TGI is > 50 µM.
In the case of `Cc1nc2ccc(Nc3nc(NCCN4CCOCC4)nc(Nc4ccc(F)cc4)n3)cc2n1Cc1ccccc1`, the GI50 in the assay on ACHN renal is 2.78 µM; with NCI/ADR-RES ovarian it was 3.79 µM; in the assay with SF-295 CNS it was 1.49 µM; in the assay on NCI-H226 lung, 4.02 µM; with HCC-2998 colon it was 2.74 µM; in the assay on SNB-75 CNS, 1.59 µM. Also, the GI50 in the assay with UO-31 renal is 1.78 µM. Also, the TGI in the assay with ACHN renal came out at 17.5 µM; in the assay with NCI/ADR-RES ovarian, 40.1 µM; with SF-295 CNS it was 2.93 µM; in the assay with NCI-H226 lung it was 27.9 µM; with HCC-2998 colon, 6.23 µM; in the assay on SNB-75 CNS, 4.82 µM. This compound displayed a TGI with UO-31 renal of 8.2 µM.
For the compound `CCOC(=O)c1[nH]c(-c2ccc(Cl)cc2)cc1-c1cccnc1`, the GI50 with ACHN renal was 0.714 µM; in the assay with EKVX NSCLC, 1.35 µM; with NCI/ADR-RES ovarian it was 0.511 µM; in the assay on SF-295 CNS, 0.453 µM; in the assay with NCI-H226 lung, 17.3 µM; in the assay on HCC-2998 colon, 9.46 µM. For the same compound, the figures for the GI50 in the assay with SNB-75 CNS and with UO-31 renal were 0.738 µM and 1.02 µM, respectively. Further, the TGI with ACHN renal, with EKVX NSCLC, with NCI/ADR-RES ovarian, with SF-295 CNS, in the assay with NCI-H226 lung and with HCC-2998 colon was > 100 µM each time. Further, the TGI with SNB-75 CNS and in the assay with UO-31 renal was > 100 µM each time.
Consider `O=c1[nH]c(=O)n(C2OC(CO)C(O)C2O)c2c1CCCC2` (configuration not stated), for which the TGI in the assay with ACHN renal, in the assay on EKVX NSCLC, in the assay with NCI/ADR-RES ovarian, in the assay on SF-295 CNS, with NCI-H226 lung and with HCC-2998 colon was > 100 µM throughout. Besides, the TGI with SNB-75 CNS and with UO-31 renal was > 100 µM throughout.
In the case of `OCC1OC(n2ccc3c(NO)ncnc32)C(O)C1O` (configuration not stated), the GI50 in the assay with ACHN renal is 0.0391 µM; with EKVX NSCLC, 0.241 µM; in the assay on NCI/ADR-RES ovarian it was 0.238 µM; with SF-295 CNS, 0.144 µM; in the assay on NCI-H226 lung, 0.251 µM; in the assay on HCC-2998 colon it was 0.25 µM. The figures for the GI50 in the assay on SNB-75 CNS and with UO-31 renal were 0.172 µM and 0.0536 µM, respectively. For the same compound, the TGI in the assay on ACHN renal amounted to 3.17 µM; in the assay on EKVX NSCLC it was 0.994 µM; in the assay with NCI/ADR-RES ovarian, 1.64 µM; in the assay with SF-295 CNS, 0.599 µM; with HCC-2998 colon, 1 µM; in the assay with SNB-75 CNS it was 1.82 µM. This compound yielded a TGI in the assay on UO-31 renal of 0.502 µM.
On to `C=C1C(=O)OC2CC1C(O)C/C(C)=C/CC/C(C)=C/C(O)CC2C` (configuration not stated), for which the TGI in the assay on ACHN renal was 3.75 µM; in the assay with EKVX NSCLC, 5.81 µM; in the assay with NCI/ADR-RES ovarian, 4.8 µM; with SF-295 CNS it was 26.7 µM; in the assay on NCI-H226 lung it was 24.8 µM; in the assay with HCC-2998 colon it was 4.21 µM. Besides, the figures for the concentration for total growth inhibition (TGI) in the assay with SNB-75 CNS and with UO-31 renal were 16.3 µM and 6.66 µM, respectively.
